Where a name gives a salt, the structure may show the parent alone. Read-outs that look alike come from different tables or passages of the source. A value given as a limit tells only on which side of the number the result lay.

The nature of data set [1]: Stability in buffer solution on storage (HPLC). The format is physicochemical. Particulars: about 0.1%, stored at 50°C for 476 hours; for Stability (100% = concentration before storage) pH: 8: 50 mM Tris-HCl; for Stability (100% = concentration before storage) pH: 5: 50 mM acetic acid-NaOH. The protocol: In the Examples and Test Examples, the analysis of an L-ascorbic acid 2-phosphate salt or an ion thereof was performed using an Ap-containing solution having a known concentration (prepared from L-ascorbic acid 2-phosphate magnesium salt) as a standard by an HPLC method using a Shodex IEC DEAE-825 resin (ammonium acetate 10 mM → 1M gradient, detected spectrophotometrically at 265 nm). The elemental analysis was performed by an ICP emission method, flame photometry and an ion chromatography method. Unless otherwise indicated, the reagents used herein were commercially available reagents.
The stability of L-ascorbic acid 2-phosphate zinc salt was compared to that of L-ascorbic acid 2-phosphate magnesium salt. Each salt was dissolved in a buffer solution (50 mM acetic acid-NaOH, pH: 5, or 50 mM Tris-HCl, pH: 8) to a concentration of about 0.1% and stored at 50°C for 476 hours. The concentrations of the L-ascorbic acid 2-phosphate before and after storage were analyzed by the HPLC method.

Another data set has as its system B. subtilis (168 strain). Nature of the data set: Antimicrobial effect, turbidity in NUTRIENT BROTH. Type of data set: cell-based. Particulars: 0.1% salt, pH 6.8, about 10^7 cells/ml, 37°C for 24 hours. The protocol: (§1) To NUTRIENT BROTH (produced by DIFCO), 0.1% of an L-ascorbic acid 2-phosphate salt was added thereto, and the pH was adjusted to 6.8 using hydrochloric acid or sodium hydroxide. Using 5 ml of the medium thus prepared, test bacterium were inoculated in a concentration of about 10^7 cells/ml and incubated in a test tube at 37°C for 24 hours. […] As a control, the same test was performed using a medium not containing an L-ascorbic acid 2-phosphate salt.

Another data set deals with E. coli (K-12 strain). Description: Antimicrobial effect, turbidity in NUTRIENT BROTH. The following applies: 0.1% salt, pH 6.8, about 10^7 cells/ml, 37°C for 24 hours. The format is cell-based. The protocol:
as §1

The conditions of data set [2]: cited from earlier work.
Setting [3] is: background statement on known salts.

Take `O=C1O[C@H]([C@@H](O)CO)C(O)=C1OP(=O)([O-])[O-].[Zn+2]` [L-ascorbic acid 2-phosphate zinc salt (Example 2)]: in data set [1] (pH: 8, 28560 min), the “Stability (100% = concentration before storage) pH: 8” value is listed as 95%. Moreover, the “Stability (100% = concentration before storage) pH: 5” value in data set [1] (pH: 5, 28560 min) was 92%.
`O=C1O[C@H]([C@@H](O)CO)C(O)=C1OP(=O)([O-])[O-].[Mg+2]` [L-ascorbic acid 2-phosphate magnesium salt]: the “Stability (100% = concentration before storage) pH: 8” value in data set [1] (pH: 8) is reported as 95%. Also, the “Stability (100% = concentration before storage) pH: 5” value in data set [1] (pH: 5) was found to be 82%. Also, in the data set on B. subtilis (168 strain), the “turbidity after incubation, B. subtilis (168 strain)” value (from here on “turbidity … (168 strain)”) is on record as “+”. Besides, the “turbidity after incubation, E. coli (K-12 strain)” value (“turbidity … (K-12 strain)” for short) in the data set on E. coli (K-12 strain) was “+”. In addition, in data set [2] (setting [3]), the “concentration of aqueous solution that can be formed (solubility in water)” value (from here on “concentration … (solubility in water)”) is recorded as less than 30%.
`O=C1O[C@H]([C@@H](O)CO)C(O)=C1OP(=O)(O)O` [calcium salt]: the “concentration … (solubility in water)” value in data set [2] (setting [3]) was “scarcely dissolves in water”.
`O=C1O[C@H]([C@@H](O)CO)C(O)=C1OP(=O)([O-])[O-].[Zn+2]` [L-ascorbic acid 2-phosphate zinc salt]: the remaining at 476 h in data set [1] (50 mm acetic acid-naoh, pH 5, 50 mM acetic acid-NaOH, pH: 5, read-out: Stability (100% = concentration before storage) pH: 5) is 91%; in data set [1] (50 mm tris-hcl, pH 8, 50 mM Tris-HCl, pH: 8, read-out: Stability (100% = concentration before storage) pH: 8), 93%. Further, in the data set with B. subtilis (168 strain), the “turbidity … (168 strain)” value is reported as “-”. In the data set with E. coli (K-12 strain), the “turbidity … (K-12 strain)” value is on record as “-”. The solubility in “Solubility in water” was no less than 500 mg/mL.
As to `O=C1O[C@H]([C@@H](O)CO)C(O)=C1OP(=O)([O-])[O-].[Na+].[Na+]`, the “turbidity … (168 strain)” value in the data set with B. subtilis (168 strain) is on record as “+”. The “turbidity … (K-12 strain)” value in the data set with E. coli (K-12 strain) is reported as “+”. In addition, the “concentration … (solubility in water)” value in data set [2] was “about 30%”.

One may read the solubility as the dissolved amount per volume that the medium holds. Higher therefore signals much dissolved substance.

The values are drawn from patent EP0884321A1, “Ascorbic acid 2-phosphate zinc salt and process for manufacturing the same” (priority 1997, dated 1998).
